Structures can show the parent of a compound that is named as a salt.
Assays:
[1] = test system: apomorphine-induced hypothermia; assay: Antagonism with respect to apomorphine-induced hypothermia in mice; assay type: in vivo; details: apomorphine 1 mg.kg^-1 s.c., after 2 hours; for change in vivo at 2.5 mg/kg / change in vivo at 5 mg/kg / change in vivo at 10 mg/kg / change in vivo at 20 mg/kg: Mus musculus, ip, 2 h; for change in vivo at 2.5 mg/kg: read-out: % antagonism of hypothermia, mice, i.p. dose 2.5; for change in vivo at 5 mg/kg: read-out: % antagonism of hypothermia, mice, i.p. dose 5; for change in vivo at 10 mg/kg: read-out: % antagonism of hypothermia, mice, i.p. dose 10; for change in vivo at 20 mg/kg: read-out: % antagonism of hypothermia, mice, i.p. dose 20; for % antagonism of hypothermia: mice, hydrochloride
Protocol: Testing for an antagonism with respect to apomorphine-induced hypothermia in mice was performed according to the method described by CHERMAT R. and PONCELET M. in J. Pharmac. (1983), 14, No. 1, p. 93-97. The dose of apomorphine administered subcutaneously was 1 mg.kg^-1. Tables VII and VIII show the percentage antagonism of the hypothermia observed after 2 hours.

[2] = test system: apomorphine-induced stereotypy; assay: Antagonism of apomorphine-induced stereotypy in rats; assay type: in vivo; details: apomorphine 1.5 mg.kg^-1 i.p., 30 minutes; for % ISS (inhibition (-) or potentiation (+) of the stereotypy score): rats, hydrochloride
Protocol: The inhibitory activity of the compounds of the invention with respect to apomorphine- or amphetamine-induced stereotypy in rats was assessed using the scale of scoring of stereotyped movements described by Quinton R. M. and Halliwell G. in Nature (1963), 200, p. 178-179.
Apomorphine or amphetamine was administered to the animals intraperitoneally at a dose of 1.5 mg.kg^-1. The percentage inhibition (-) or potentiation (+) of the stereotypy score (% ISS) shown in Tables IV and V for apomorphine corresponds to a measurement time of 30 minutes. In contrast, the percentage inhibition of the stereotypy score shown in Table VI for amphetamine corresponds to a measurement time of 3 hours. […]

[3] = test system: aggression of isolated, bulbectomized rats; assay: Antiaggressive effects: aggression of isolated, bulbectomized rats; assay type: in vivo; details: i.p.
Source text: (§1) The antiaggressive effects of the compounds of the invention were investigated by two methods, one of them testing for an inhibition of aggressive behavior in peviously isolated mice (Yen C. Y., Stanger A. L., and Millman N, Arch. Int. Pharmacodyn. Therap. (1959), 123, p. 179-185), and the other in isolated and bulbectomized rats (Garattini S. and Sigg E. B. "Aggressive Behaviour" p. 47-55 Ed. Excerpta Medica Found., Amsterdam, 1969).
(§2) (Tables IX and X, s=significant, p<0.05).

[4] = test system: apomorphine-induced rearing-up; assay: Antagonism of apomorphine-induced rearing-up behavior in mice; assay type: in vivo; details: apomorphine 0.75 mg.kg^-1 s.c.; for change in vivo at 2.5 mg/kg: read-out: % inhibition of rearing-up, mice, i.p. dose 2.5 mg.kg^-1; for change in vivo at 5 mg/kg: read-out: % inhibition of rearing-up, mice, i.p. dose 5 mg.kg^-1; for % inhibition of rearing-up: mice, hydrochloride
Protocol: Studied in the test of antagonism of apomorphine-induced rearing-up following the subcutaneous administration of a dose of 0.75 mg.kg^-1 of this substance in mice, the compounds of general formula I act in a clear-cut manner at doses greater than or equal to 2.5 mg.kg^-1 (i.p.). The same results are observed when the compounds of general formula I are administered orally at a dose of 20 mg.kg^-1. The activity of the compounds was assessed according to the method described by Protais P, Costentin J and Schwartz J. C. in Psychopharmacology (1976), 50, p. 1-6.
(s=significant difference, p<0.05).

[5] = test system: reserpine-induced hypothermia; assay: Antagonism of reserpine-induced hypothermia; assay type: in vivo, Swiss CD male mice; details: mice, reserpine 2.5 mg.kg^-1 i.p.
Protocol: (§3) The antidepressant effects of the compounds of the invention were investigated by assessing the antagonism of reserpine-induced hypothermia and the antagonism of the ponto-geniculo-occipital waves induced by the compound Ro4-1284 in cats.
The study is carried out on Swiss CD male mice (27-28 g). After distribution into groups of 10 animals each, reserpine is injected intraperitoneally at a dose of 2.5 mg.kg^-1. Three hours later, the compounds undergoing trial are administered intraperitoneally. The rectal temperature of the animals is measured one hour and two hours after the second treatment, and compared with the initial temperature To of these same animals, measured immediately before the administration of the compounds undergoing trial.

[6] = test system: isolation-induced aggression; assay: Antiaggressive effects: isolation-induced aggression in mice; assay type: in vivo; details: isolated mice, i.p.
Source text: as §1, §2

[7] = test system: ponto-geniculo-occipital (P.G.O.) waves induced by Ro4-1284; assay: Antagonism of the ponto-geniculo-occipital (P.G.O.) waves induced by Ro4-1284; assay type: in vivo; details: Felis catus, iv, cats, i.v., read-out: ED50 (effective dose inhibiting by 50% the number of P.G.O. waves)
Protocol: as §3
This study was performed according to the method of Ruch-Monachon M. A., Jalfre M. and Haefely W. described in Arch. Int. Pharm. Therap., (1976), 219, No. 2, p. 251-346, and it enabled the effective dose (i.v) inhibiting by 50% (ED50) the number of P.G.O waves to be assessed.

[8] = test system: interoceptive stimulus of apomorphine; assay: Drug discrimination in rats (generalization with apomorphine); assay type: in vivo; details: 2.5 mg.kg^-1 i.p., 30 minutes before test, hydrochloride
Protocol: Rats were trained to discriminate between the effect of the interoceptive stimulus of apomorphine (0.2 mg.kg^-1 i.p.) and that of physiological saline, according to a principle described by Colpaert F. in "Drug discrimination application in C.N.S. Pharmacology" Ed. Elsevier Biomedical 1982, Amsterdam. […]
Under the experimental conditions employed, the behavior shown by the animals coincides with that noted in the case of administration of apomorphine.

[9] = 2.5 mg.kg^-1 i.p., hydrochloride
[10] = 10 mg.kg^-1 i.p., hydrochloride
[11] = 20 mg.kg^-1 i.p., hydrochloride

Row | SMILES | change in vivo at 2.5 mg/kg [1] [%] | change in vivo at 5 mg/kg [1] [%] | change in vivo at 10 mg/kg [1] [%] | change in vivo at 20 mg/kg [1] [%] | % of rats rendered non-aggressive ([3]; 2.5 mg.kg^-1) [%] | % of rats rendered non-aggressive ([3]; 5 mg.kg^-1, hydrochloride) [%] | change in vivo at 2.5 mg/kg ([4]; Mus musculus, ip) [%] | change in vivo at 5 mg/kg ([4]; Mus musculus, ip) [%] | % inhibition of hypothermia [5, 9] | % inhibition of hypothermia ([5]; 5 mg.kg^-1 i.p., hydrochloride) | % inhibition of hypothermia [5, 10] | % of pairs of mice showing no sign of fighting ([6]; 5 mg.kg^-1, hydrochloride) [%] | % ISS (inhibition (-) or potentiation (+) of the stereotypy score) ([2]; i.p. dose 10 mg.kg^-1) | % ISS (inhibition (-) or potentiation (+) of the stereotypy score) ([2]; i.p. dose 20 mg.kg^-1) | % of rats rendered non-aggressive ([3]; 10 mg.kg^-1, hydrochloride) [%] | % inhibition of hypothermia [5, 11] | % of pairs of mice showing no sign of fighting ([6]; 10 mg.kg^-1, hydrochloride) [%] | % inhibition of hypothermia ([5]; 20 mg.kg^-1 i.p.) | % of pairs of mice showing no sign of fighting ([6]; 2.5 mg.kg^-1) [%] | also measured
1 | CNC1CCc2cc3c(cc2C1)OCC3 (stereo not drawn) [Example 38, d-7-(N-Methylamino)-2,3,5,6,7,8-hexahydronaphtho[2,3-b]furan hydrochloride] | -48 | -91 | -112 | -119 | 37 | 75 | -76 | -100 | -28% | -35% | -21% | 70 | – | – | – | – | – | – | – | change in vivo at 5 mg/kg ([2]; Rattus norvegicus, ip, 0.5 h, read-out: % ISS (inhibition (-) or potentiation (+) of the stereotypy score), rats, i.p. dose 5 mg.kg^-1): -60%; change in vivo at 10 mg/kg ([2]; Rattus norvegicus, ip, 0.5 h, read-out: % ISS (inhibition (-) or potentiation (+) of the stereotypy score), rats, i.p. dose 10 mg.kg^-1): -54%
2 | CN(C)C1CCc2cc3c(cc2C1)OCC3 (stereo not drawn) [Example 41, l-7-(N,N-Dimethylamino)-2,3,5,6,7,8-hexahydronaphtho[2,3-b]furan hydrochloride] | – | – | – | – | – | – | – | – | – | – | +13% | 66 | +11% | +3% | 50 | +29% | 90 | – | – | –
3 | CNC1CCc2cc3c(cc2C1)OCC3 (racemic) [Example 9, dl-7-(N-Methylamino)-2,3,5,6,7,8-hexahydronaphtho[2,3-b]furan hydrochloride] | -39 | -67 | -86 | -84 | 27 | – | -46 | -65 | – | – | – | – | – | – | – | – | – | +11% | 67 | ED50 [7]: 0.173 mg/kg; % of rats rendered non-aggressive ([3]; 5 mg.kg^-1): 58%; change in vivo at 10 mg/kg ([4]; Mus musculus, ip, read-out: % inhibition of rearing-up, mice, i.p. dose 10 mg.kg^-1): -100%; change in vivo at 20 mg/kg ([4]; Mus musculus, ip, read-out: % inhibition of rearing-up, mice, i.p. dose 20 mg.kg^-1): -100%; % inhibition of hypothermia ([5]; 2.5 mg.kg^-1 i.p.): -8%; % inhibition of hypothermia ([5]; 5 mg.kg^-1 i.p.): +37%; % inhibition of hypothermia ([5]; 10 mg.kg^-1 i.p.): +16%; % of pairs of mice showing no sign of fighting ([6]; 5 mg.kg^-1): 56%; % of pairs of mice showing no sign of fighting ([6]; 10 mg.kg^-1): 89%
4 | CN(C)C1CCc2cc3c(cc2C1)OCC3 (stereo not drawn) [Example 40, d-7-(N,N-Dimethylamino)-2,3,5,6,7,8-hexahydronaphtho[2,3,-b]furan hydrochloride] | – | – | -44 | -73 | – | – | -75 | -100 | – | – | +14% | 22 | -61% | -67% | 42 | +14% | 50 | – | – | –
5 | NC1CCc2cc3c(cc2C1)OCC3 (stereo not drawn) [Example 4, l-7-Amino-2,3,5,6,7,8-hexahydronaphtho[2,3-b]furan hydrochloride] | – | – | – | – | – | – | – | – | – | – | – | 44 | – | – | – | – | – | – | – | % antagonism of hypothermia ([1]; i.p. dose 2.5): -8%; % antagonism of hypothermia ([1]; i.p. dose 5): -3%; % antagonism of hypothermia ([1]; i.p. dose 10): -11%; % antagonism of hypothermia ([1]; i.p. dose 20): -19%; % of rats rendered non-aggressive ([3]; 2.5 mg.kg^-1, hydrochloride): 12%; % of animals which generalize [8]: 70%; Number of animals showing the effect of generalization with apomorphine [8]: 7/10; % inhibition of rearing-up ([4]; i.p. dose 10 mg.kg^-1): -24%; % inhibition of rearing-up ([4]; i.p. dose 20 mg.kg^-1): -86%; % of pairs of mice showing no sign of fighting ([6]; 2.5 mg.kg^-1, hydrochloride): 22%
6 | CNC1CCc2cc3c(cc2C1)OCC3 (stereo not drawn) [Example 39, l-7-(N-Methylamino)-2,3,5,6,7,8-hexahydronaphtho[2,3-b]furan hydrochloride] | – | – | – | – | – | 58 | – | – | +37% | +14% | +6% | 90 | – | – | – | – | – | +15% | 70 | –

From patent US4863951A, “Pharmacologically active amino-5,6,7,8-tetrahydronaphtho [2,3-B] furan compounds” (ADIR Et Cie, priority 1987, dated 1989)
